Patent US20080070987A1, “META-XYLYLENEDIAMINE VANADATE SALTS” (priority 2006, published 2008)

Tests used:
Mouse SSAO/VAP-1 = molecular target: T1, Mouse SSAO/VAP-1 (Mus musculus, UniProt O70423); assay: Fluorimetric detection of SSAO-mediated H2O2 formation (Amplex Red), mouse adipose tissue membranes; format: biochemical; conditions: production of hydrogen peroxide; compounds at 100 μM
T1 construct: from tissue; host or cells: internal adipose tissue membranes of Swiss mice
T1 sequence (O70423 1-765): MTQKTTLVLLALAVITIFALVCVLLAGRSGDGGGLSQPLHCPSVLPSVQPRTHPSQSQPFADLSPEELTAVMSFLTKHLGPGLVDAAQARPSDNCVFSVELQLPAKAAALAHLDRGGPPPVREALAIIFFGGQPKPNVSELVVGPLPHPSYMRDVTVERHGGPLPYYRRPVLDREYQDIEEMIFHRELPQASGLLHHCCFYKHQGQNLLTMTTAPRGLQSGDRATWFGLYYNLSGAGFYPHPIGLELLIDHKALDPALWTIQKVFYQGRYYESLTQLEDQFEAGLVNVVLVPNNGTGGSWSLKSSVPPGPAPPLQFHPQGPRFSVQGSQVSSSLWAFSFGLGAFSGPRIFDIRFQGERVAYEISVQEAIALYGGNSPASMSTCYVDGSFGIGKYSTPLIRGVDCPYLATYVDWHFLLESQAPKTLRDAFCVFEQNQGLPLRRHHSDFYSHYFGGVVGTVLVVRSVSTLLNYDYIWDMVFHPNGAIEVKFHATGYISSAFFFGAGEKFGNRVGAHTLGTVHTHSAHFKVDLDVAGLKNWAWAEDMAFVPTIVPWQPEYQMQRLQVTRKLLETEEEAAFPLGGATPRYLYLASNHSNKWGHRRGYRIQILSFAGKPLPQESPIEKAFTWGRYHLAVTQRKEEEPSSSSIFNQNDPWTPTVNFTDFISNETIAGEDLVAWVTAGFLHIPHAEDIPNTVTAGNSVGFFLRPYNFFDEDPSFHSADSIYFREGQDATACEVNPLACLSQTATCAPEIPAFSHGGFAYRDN
Description: Internal adipose tissue was obtained from Swiss mice weighing between 20 to […]. […] The lysates were then centrifuged at 5000 g at 4° C. for 15 min to eliminate the fat cake and non-homogenized material, and supernatants were collected and centrifuged at 200000 g for 2 h at 4° C. Pelleted membranes were resuspended in 30 mmol/l HEPES and stored at −80° C. until use. Protein concentrations were measured by the Bradford method with γ-globulin as standard.
(§1) The SSAO activity of human recombinant VAP-1 (0.1 μg prot/assay) and mouse adipose tissue membranes (1 μg prot/assay) was measured using Amplex Red Reagent, a highly sensitive and stable probe for H2O2. The reaction was performed in 200 μL of 0.2 mol/l phosphate buffer at pH 7.4 for 50 min at 37° C. in black non-phosphorescent microplates (Nunc). Catalytic reaction was initiated by the addition of the amines indicated as putative SSAO substrates and H2O2-detecting mixture containing horseradish peroxidase and Amplex Red, as previously described. Fluorescence intensity was measured (excitation, 545 nm, 590 nm, Bio-Tek fluorescence plate reader) and H2O2 concentration was calculated form calibration curves generated by serial dilutions of standard H2O2. Fluorescence readings were performed every 5 min. […] To test amines as putative SSAO inhibitors, they were pre-incubated for 20 min with semicarbazide, and their percentage of inhibition was calculated by referring to SSAO activity produced by benzylamine. The kinetic parameters Km and Vmax were calculated using appropriate non-linear curve-fitting formula based on the Michaelis-Menten equation and using GraphPad Prism 4.0 software.

Human SSAO/VAP-1 = molecular target: T2, Human SSAO/VAP-1 (Homo sapiens, UniProt Q16853); assay: Fluorimetric detection of SSAO-mediated H2O2 formation (Amplex Red), human recombinant VAP-1; format: biochemical; conditions: production of hydrogen peroxide; compounds at 1 mM
T2 sequence (Q16853 1-763): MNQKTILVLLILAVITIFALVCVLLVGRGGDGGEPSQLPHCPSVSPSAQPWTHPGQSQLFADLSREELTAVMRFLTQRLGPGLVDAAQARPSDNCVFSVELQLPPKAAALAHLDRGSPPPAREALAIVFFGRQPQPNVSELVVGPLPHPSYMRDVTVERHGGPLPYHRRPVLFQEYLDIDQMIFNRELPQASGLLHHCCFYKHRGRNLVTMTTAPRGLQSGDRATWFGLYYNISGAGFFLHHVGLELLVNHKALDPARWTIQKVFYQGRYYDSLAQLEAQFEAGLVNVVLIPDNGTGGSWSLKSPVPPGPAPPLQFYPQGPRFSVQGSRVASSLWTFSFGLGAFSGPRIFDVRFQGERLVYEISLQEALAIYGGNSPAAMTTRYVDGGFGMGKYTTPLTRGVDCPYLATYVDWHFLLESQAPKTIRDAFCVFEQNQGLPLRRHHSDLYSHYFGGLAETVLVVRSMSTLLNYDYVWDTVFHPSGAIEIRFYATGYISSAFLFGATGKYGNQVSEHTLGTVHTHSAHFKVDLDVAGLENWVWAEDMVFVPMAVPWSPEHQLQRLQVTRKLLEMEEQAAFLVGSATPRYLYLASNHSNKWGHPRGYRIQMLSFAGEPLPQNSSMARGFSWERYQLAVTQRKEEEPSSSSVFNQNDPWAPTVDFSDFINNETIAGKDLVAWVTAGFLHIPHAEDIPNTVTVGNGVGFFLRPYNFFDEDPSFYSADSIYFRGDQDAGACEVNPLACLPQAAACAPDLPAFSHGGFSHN
Description: as §1

isolated rat adipocytes = assay: Glucose (2-deoxyglucose) transport in isolated rat adipocytes; format: cell-based, Wistar rats; conditions: for stimulation of glucose transport (2-DG uptake), in words: 45 min incubation; for effect of semicarbazide on the stimulation of glucose transport: 1 mM semicarbazide
Description: FIG. 1 is a graphical illustration of the hexaquis(benzylammonium) decavanadate effects on glucose transport in isolated rat adipocytes. In this Figure, V corresponds to the rate of 2-deoxyglucose transport (expressed relative to the basal rate), and the results are mean +standard error of the mean (SEM). The adipocytes were incubated in the absence of stimulants in the following conditions: basal (1); in the presence of 100 nM insulin (2); in the presence of hexaquis(benzylammonium) decavanadate at concentrations of 0.5 μM (3), 1 μM (4), 2.5 μM (5), 5 μM (6), 10 μM (7), 25 μM (8), 50 μM (9), and 100 μM (10). The cells were also incubated in the presence of the semicarbazide inhibitor (1 mM), and 10 μM hexaquis(benzylammonium) decavanadate (11), 25 μM of hexaquis(benzylammonium) decavanadate (12) or 50 μM hexaquis(benzylammonium) decavanadate (13). In parallel, the cells were incubated in presence of 100 μM of sodium vanadate and 100 μM of benzylamine, in the absence (14) or in the presence of 1 mM of semicarbazide (15).
FIG. 2 is a graphical illustration of the effects of hexaquis(benzylammonium) decavanadate, pentaquis(benzylammonium) decavanadate and tetraquis(benzylammonium) decavanadate on glucose transport in isolated rat adipocytes. V corresponds to the rate of 2-deoxyglucose uptake (expressed as relation with basal group), and the results are mean +standard error mean. The adipocytes were incubated in the absence of stimulants in the following conditions: basal (1); in the presence of 100 nM of insulin (2); in the presence of hexaquis(benzylammonium) decavanadate at concentrations of 10 μM (3) and 25 μM (4), pentaquis(benzylammonium) decavanadate at concentrations of 10 μM (8) and 25 μM (9), and tetraquis(benzylammonium) decavanadate at concentrations of 10 μM (11) and 25 μM (12). The cells were also incubated in the presence of the semicarbazide inhibitor (1 mM) and, 25 μM of hexaquis(benzylammonium) decavanadate (5), 25 μM of pentaquis(benzylammonium) decavanadate (10) or 25 μM of tetraquis(benzylammonium) decavanadate (13). In parallel, the cells were incubated in the presence of 100 μM of sodium vanadate (6) or in the presence of 250 μM of sodium vanadate (7).
Adipose cells from Wistar rats were incubated for 45 minutes in basal conditions (Basal) or in the presence of 100 nM insulin (Ins) and different concentrations of. hexaquis(benzylammonium) decavanadate (B6V10) in the absence or in the presence of 1 mM semicarbazide (SCZ). Subsequently, 2-DG transport was measured over a 5 min. interval.
The effects of the three tested compounds (B6V10, B5V10 and B4V10) were compared. Adipose cells from Wistar rats were incubated for 45 minutes in basal conditions (Basal) or in the presence of 100 nM insulin (Ins), and different concentrations of decavanadate (V10), hexaquis(benzylammonium) decavanadate (B6V10), pentaquis(benzylammonium) decavanadate (B5V10) or tetraquis(benzylammonium) decavanadate (B4V10) in the absence or in the presence of 1 mM semicarbazide (SCZ). 2-DG transport was measured over 5 min. intervals.
In additional experiments, compounds shown in FIG. 6A, 2-(4-fluoro-phenyl)ethylamine (compound A), 3-phenylpropylamine (compound B), 4-fluoro-benzylamine (compound C) and 4-phenylbutylamine (compound D) were assessed using the experimental methods set forth above for the capacity to stimulate 2-DG uptake in isolated rat adipocytes. Adipose cells from Wistar rats were incubated for 45 minutes in basal conditions (Basal) or in the presence of 100 nM insulin (Ins), and different concentrations of vanadium salts of 2-(4-fluoro-phenyl)-ethylamine (compound A), 3-phenyl-propylamine (compound B), 4-fluoro-benzylamine (compound C) and 4-phenyl-butylamine (compound D). 2-DG transport was measured over 5 min.
The effects of incubation with semicarbazide or phosphatidylinositol 3-kinase inhibitors were also investigated. […]

Compound	Mouse SSAO/VAP-1 activity % relative to benzylamine (Mouse SSAO/VAP-1)	Human SSAO/VAP-1 activity % relative to benzylamine (Human SSAO/VAP-1)	stimulation of glucose transport (2-DG uptake), in words (isolated rat adipocytes)	other results
NCc1cccc(CNC(=O)c2ccccc2)c1 [Example 6, N-(3-(aminomethyl)benzyl)benzamide]	58 ± 4%	17 ± 1%	–	–
NCc1ccc(F)cc1 [compound C, 4-fluoro-benzylamine]	–	–	markedly stimulated glucose transport	–
NCCCc1ccccc1 [compound B, 3-phenylpropylamine]	–	–	markedly stimulated glucose transport	–
CC(=O)NCc1cccc(CN)c1 [Example 2, N-(3-(aminomethyl)benzyl)acetamide]	16 ± 4%	3 ± 1%	–	–
NCCCCc1ccccc1 [compound D, 4-phenylbutylamine]	–	–	markedly stimulated glucose transport	–
CCC(=O)NCc1cccc(CN)c1 [Example 3, N-(3-(aminomethyl)benzyl)propionamide]	27 ± 1%	4 ± 1%	–	–
NCCc1ccc(F)cc1 [compound A, 2-(4-fluoro-phenyl)ethylamine]	–	–	markedly stimulated glucose transport	–
CC(=O)N[C@H](C(=O)NCc1cccc(CN)c1)c1ccccc1 [Example 7, (S)-2-acetamido-N-(3-(aminomethyl)benzyl)-2-phenylacetamide]	13 ± 3%	2 ± 1%	–	–
NCc1ccccc1 [Example 1, benzylamine, reference compound]	100%	100%	–	–
Cc1ccc(S(=O)(=O)NCc2cccc(CN)c2)cc1 [Example 8, N-(3-(aminomethyl)benzyl)-4-methylbenzenesulfonamide]	14 ± 3%	12 ± 2%	–	–
NCc1ccc(C(=O)NCc2cccc(CN)c2)cc1 [Example 11, 4-(aminomethyl)-N-(3-(aminomethyl)benzyl)benzamide]	12 ± 1%	17 ± 2%	–	–
C=CCOC(=O)NCc1cccc(CN)c1 [Example 5, allyl 3-(aminomethyl)benzylcarbamate]	49 ± 3%	21 ± 1%	–	–
NCc1cccc(CNC(=O)CI)c1 [Example 4, N-(3-(aminomethyl)benzyl)-2-iodoacetamide]	61 ± 5%	38 ± 3%	–	–
pentaquis(benzylammonium) decavanadate [Example B5V10]	–	–	pronounced stimulation on glucose transport	effect of semicarbazide on the stimulation of glucose transport (isolated rat adipocytes): blocked in the presence of semicarbazide; effect of semicarbazide on the stimulation of glucose transport (isolated rat adipocytes; listed as pentaquis(benzylammonium) decavanadate): this effect was inhibited
tetraquis(benzylammonium) decavanadate [Example B4V10]	–	–	pronounced stimulation on glucose transport	effect of semicarbazide on the stimulation of glucose transport (isolated rat adipocytes): blocked in the presence of semicarbazide; effect of semicarbazide on the stimulation of glucose transport (isolated rat adipocytes; listed as tetraquis(benzylammonium) decavanadate): this effect was inhibited
NCc1cccc(CNC(=O)c2ccc(Br)cc2)c1 [Example 12, N-(3-(aminomethyl)benzyl)-4-bromobenzamide]	46 ± 1%	16 ± 2%	–	–
NCc1cccc(CNC(=O)c2ccc(O)cc2)c1 [Example 10, N-(3-(aminomethyl)benzyl)-4-hydroxybenzamide]	26 ± 1%	5 ± 1%	–	–
